In the OPERA property sets (Mansouri et al. 2018):

Conditions: for log10 BCF / log10 biotransformation half-life (days): fish

Structure (SMILES)	boiling point [°C]	melting point [°C]	further results
ClCCCCl	121	-99.5	log10 Henry constant (atm·m³/mol): -3.01; log10 vapour pressure (mmHg): 1.26
CC(C)C(C)c1ccccc1 (stereo not drawn)	187	–	–
Fc1ccc(Cl)cc1	130	-26.8	–
N[C@@H](CSSC[C@H](N)C(=O)O)C(=O)O	–	–	ready biodegradability: readily biodegradable
CCC(C)CS (stereo not drawn)	116	–	log10 vapour pressure (mmHg): 1.3
CC1=NCCO1	111	–	–
c1ccc2c(c1)ccc1[nH]c3ccc4ccccc4c3c12	–	158	log10 Koc (L/kg): 6.03
COc1ccc(Cl)c(N)c1	–	27	–
CC(=O)C(=O)CC(C)C	138	–	–
O=C1CCCCCCCCC1	–	28	–
Fc1c(F)c(F)c(-c2c(F)c(F)c(F)c(F)c2F)c(F)c1F	206	67.5	–
O=[N+]([O-])c1ccc(SCl)c([N+](=O)[O-])c1	–	99	–
CCCCc1cccc2[nH]nnc12	–	–	log10 Koc (L/kg): 2.16
CCCCCCCCCCCCCCCC=O	–	35	–
Clc1cccc2nccc(Cl)c12	–	118	–
CCN(CC)CCOC(=O)C1(C2CCCCC2)CCCCC1.Cl	–	165	–
COc1ccc2c3c1O[C@H]1[C@@H](O)CC=C4[C@@H](C2)N(C)CC[C@]431	–	128	–
Cc1cccc(NC(=O)c2ccccc2)c1	–	125	–
O=C(Cl)CCCl	144	–	–
CC(C)(C)c1ccccc1O	223	-6.8	log10 vapour pressure (mmHg): -1.05
O=C(O)COc1ccccc1	285	98.5	–
ClC1CCCC1	114	–	–
CC[C@@H]1C(=O)OC[C@@H]1Cc1cncn1C	–	34	–
O=CC1CCCO1 (stereo not drawn)	142	–	–
CCC(C)C(=O)C(C)CC (stereo not drawn)	162	–	–
CCCCOCC	92.3	-124	log10 vapour pressure (mmHg): 1.71

Structure (SMILES)	boiling point [°C]	melting point [°C]	further results
Clc1ccc(-c2ccccc2Cl)cc1	–	–	log10 Henry constant (atm·m³/mol): -3.64; log10 Koa: 7.4; log10 Koc (L/kg): 4.34; log10 vapour pressure (mmHg): -2.68
NC(=O)Nc1ccc2ccccc2c1	–	219	–
CC[Si](Cl)(Cl)Cl	100	-106	log10 vapour pressure (mmHg): 1.67
Nc1ccc(Cl)cc1	232	72.5	log10 Koc (L/kg): 1.96; log10 vapour pressure (mmHg): -1.57; ready biodegradability: not readily biodegradable; log10 BCF: 0.84; log10 biotransformation half-life (days): -0.61
CC(C)NCC(O)COc1ccc(O)cc1 (stereo not drawn)	–	128	–
Nc1ccccc1Cl	209	-14	log10 vapour pressure (mmHg): -0.69; ready biodegradability: not readily biodegradable; log10 BCF: 0.95; log10 biotransformation half-life (days): -0.61
CCc1nccnc1CC	181	–	–
C#CCN1C(=O)CN=C(c2ccccc2)c2cc(Cl)ccc21	–	141	–
Cc1cccc(I)c1O	–	15.5	–
COC(=O)c1ccc(C)cc1C	232	-2	–
CC(=O)C1CCc2ccccc2C1=O (stereo not drawn)	–	56	–
Cc1cc(O)c(Cl)cc1Cl	234	73	–
O=C(c1ccccc1)c1cccnc1	307	38	–
Clc1ccc(Oc2ccccc2Cl)cc1	–	–	log10 vapour pressure (mmHg): -3.15
CCC(Cl)(Cl)Cl	108	–	log10 vapour pressure (mmHg): 1.5
O=C1OC(c2ccc(O)cc2)(c2ccc(O)cc2)c2ccccc21	–	262	ready biodegradability: not readily biodegradable
O=C1c2ccccc2-c2ccc(Cl)cc21	–	126	–
C[C@]12CC[C@H](O)C[C@@H]1CC[C@@H]1[C@@H]2[C@@H](O)C[C@@]2(C)[C@H]1CC[C@]2(O)C(=O)CO	–	244	–
CCCC(=O)C(=O)O	179	6.5	–
O=c1cc(CN2CCOCC2)c2cc(O)c(O)cc2o1	–	232	–
CCCCCCCCCCCC(=O)N(CCO)CCO	–	–	ready biodegradability: readily biodegradable
CCCCCCC(=O)OCCCCC	245	-50	–
CC(CCl)OP(=O)(OC(C)CCl)OC(C)CCl (stereo not drawn)	–	-40	ready biodegradability: not readily biodegradable; log10 BCF: 0.9; log10 biotransformation half-life (days): -1.31
N=C(N)NS(=O)(=O)c1ccc(N)cc1	–	192	–
Cc1cc(C)c(C)cn1	188	–	–
CC1CS(=O)(=O)CCN1N=Cc1ccc([N+](=O)[O-])o1 (stereo not drawn)	–	181	–

Structure (SMILES)	boiling point [°C]	melting point [°C]	further results
CC(=O)N=C1C=CC(=O)C=C1	–	74.5	–
Clc1cc2oc3ccc(Cl)c(Cl)c3c2c(Cl)c1Cl	–	–	log10 Koa: 10.5
CN(C)C(=O)Oc1cccc([N+](C)(C)C)c1.COS(=O)(=O)[O-]	–	143	–
CCCCCC[N+](=O)[O-]	193	–	–
CC=Cc1ccc(OC)cc1	234	21.3	log10 vapour pressure (mmHg): -1.15
O=C1NCCN1c1ncc([N+](=O)[O-])s1	–	261	–
Clc1cccnc1	148	–	–
O=C(O)CCCCCCCF	–	35	–
NC(=O)NCCCC(N)C(=O)O (stereo in doubt)	–	236	–
NCc1ccco1	146	–	–
Clc1ccc(Cn2c(CN3CCCC3)nc3ccccc32)cc1	–	167	–
CC(C)CCOC(=O)CC(C)C	190	–	log10 vapour pressure (mmHg): -0.0526
O=C(Cl)c1ccccc1C(=O)Cl	281	15.5	log10 vapour pressure (mmHg): -1.79
CCOC(=O)C(C)(C)O	150	–	–
CCC(Br)C(=O)OC (stereo not drawn)	168	–	–
Cc1ccnc(Cl)c1	192	115	–
Cc1nc(NS(=O)(=O)c2ccc(N)cc2)oc1C	–	193	–
C#CC(OCC)OCC	139	–	–
CC(C)C1CCCC1	126	-111	log10 vapour pressure (mmHg): 1.21
Cc1cccc(C)c1N(Cn1cccn1)C(=O)CCl	–	85	log10 Henry constant (atm·m³/mol): -9.25
CC(C)(C)C(=O)C1C(=O)c2ccccc2C1=O	–	109	–
CCC(C)O (stereo not drawn)	–	–	log10 Henry constant (atm·m³/mol): -5.04; log10 Koa: 3.85; log10 vapour pressure (mmHg): 1.26; ready biodegradability: readily biodegradable
N#CSc1ccccc1	232	–	–
CCCCOC(=O)c1ccccc1O	271	-5.9	–
CCCC(C)O (stereo not drawn)	119	-73	log10 Henry constant (atm·m³/mol): -4.83; log10 vapour pressure (mmHg): 0.786; ready biodegradability: readily biodegradable
O=C(O)c1ccccc1C(=O)Nc1ccc(S(=O)(=O)Nc2nccs2)cc1	–	273	–

Structure (SMILES)	boiling point [°C]	melting point [°C]	further results
O=C(O)c1ccccc1SSc1ccccc1C(=O)O	–	288	–
CC(C)(C)Cl	50.5	-26	ready biodegradability: not readily biodegradable
CC(C)(C)CC(=O)OCC(=O)[C@@]12OC(C)(C)O[C@@H]1C[C@H]1[C@@H]3CCC4=CC(=O)C=C[C@]4(C)[C@@]3(F)[C@@H](O)C[C@@]12C	–	295	–
O=CC1CCCC1	134	–	–
C=Cc1ccc(O)cc1	–	73.5	log10 vapour pressure (mmHg): -1.85
Cc1cc(N(CCO)CCO)ccc1N=Nc1ccc([N+](=O)[O-])cc1Cl	–	192	–
CC1(C)OC(=O)CC(=O)O1	–	94	–
CC(=O)CC(c1ccco1)c1c(O)c2ccccc2oc1=O (stereo not drawn)	–	124	–
CCCC(=O)OCc1ccco1	212	–	–
CC(C)(C)N(NC(=O)c1ccccc1)C(=O)c1ccccc1I	–	188	–
CC(C)(C)c1cccc(C(C)(C)C)n1	–	2.2	–
CC(C)OB(OC(C)C)OC(C)C	140	–	log10 vapour pressure (mmHg): 0.875
COC(C)(C)CC(C)=O	160	–	log10 vapour pressure (mmHg): 0.342; ready biodegradability: not readily biodegradable
COc1cccc(OC)n1	179	–	–
c1ccc2cc3c(ccc4c5ccccc5ccc34)cc2c1	–	–	log10 biotransformation half-life (days): 0.58
O=C(CCCl)NCc1ccccc1	–	94	–
C[C@@H]1C[C@H]2[C@@H]3C[C@H](F)C4=CC(=O)C=C[C@]4(C)[C@@]3(F)[C@@H](O)C[C@]2(C)[C@H]1C(=O)CO	–	242	–
CCCCC[Si](Cl)(Cl)Cl	172	–	–
O=C(O)/C=C/Cl	–	82	–
O=C(O)C(Br)(Br)Br	–	132	log10 Henry constant (atm·m³/mol): -8.48
O=C1c2ccccc2C(=O)c2c(Br)cccc21	–	186	–
BrC1c2ccccc2-c2ccccc21	–	104	–
N#Cc1cccnc1	207	51	log10 Henry constant (atm·m³/mol): -6.56; log10 Koc (L/kg): 1.56; log10 vapour pressure (mmHg): -0.529; ready biodegradability: not readily biodegradable
CCOC(=O)c1ccccc1O	232	1	log10 vapour pressure (mmHg): -1.07; ready biodegradability: readily biodegradable
BrCCBr	132	9.9	log10 Henry constant (atm·m³/mol): -3.19; log10 Koc (L/kg): 1.71; log10 vapour pressure (mmHg): 1.05; ready biodegradability: not readily biodegradable; log10 BCF: 1.18; log10 biotransformation half-life (days): -0.83
Nc1cc(S(N)(=O)=O)ccc1S(=O)(=O)CCCO	–	137	–

Structure (SMILES)	boiling point [°C]	melting point [°C]	further results
O=C1CCCCN1	256	39.5	log10 vapour pressure (mmHg): -2.36
CCCCCCCCc1ccc(N)cc1	310	20	ready biodegradability: readily biodegradable
O=C(O)c1cc([N+](=O)[O-])ccc1O	–	230	–
CCOC(=O)CCCl	162	–	–
COC(=O)OC	90.5	3	log10 vapour pressure (mmHg): 1.74
Cc1c(Cl)c(Cl)cc(Cl)c1Cl	–	93.5	–
O[C@@H]1CCc2ccccc2C1	–	15.5	–
CC(C)CC(C)N (stereo not drawn)	109	–	log10 Henry constant (atm·m³/mol): -4.51
N#CCc1ccccc1	234	-23.8	log10 vapour pressure (mmHg): -1.05; ready biodegradability: readily biodegradable
C=CCN(CC=C)c1c(C)cc(OC(=O)NC)cc1C	–	67	–
CC(=O)OCC1=C[C@@H]2OC(=O)C3=COC(O[C@@H]4O[C@H](CO)[C@@H](O)[C@H](O)[C@H]4O)C1C32 (stereo partly drawn)	–	132	–
CCCCCCCCCCCCCCCCCC(=O)OCCC(C)C	–	25.5	–
Oc1nc2ccccc2s1	360	139	–
COC=O	31.7	-99	log10 Henry constant (atm·m³/mol): -3.65; log10 Koa: 1.75; log10 vapour pressure (mmHg): 2.77
O=C(O)c1ccc([N+](=O)[O-])c([N+](=O)[O-])c1	–	166	log10 Koc (L/kg): 1.53
Cc1csc(C)n1	146	–	log10 vapour pressure (mmHg): 0.706
CC(C)CCCCCCOC(=O)c1ccccc1C(=O)OCCCCCCC(C)C	–	–	ready biodegradability: readily biodegradable
O=C(O)CCCCC1CCSS1 (stereo not drawn)	–	60.5	–
C=C[C@H]1CNCC[C@H]1CCC(=O)c1ccnc2ccccc12	–	59	–
Nc1cc(Cl)c(Cl)cc1N	–	160	–
NCC1CCNCC1	200	25	–
CCCC[P+](CCCC)(CCCC)Cc1ccc(Cl)cc1Cl.[Cl-]	–	117	log10 vapour pressure (mmHg): -6.15
O=S(=O)(O)c1ccc(O)c2ccccc12	–	–	log10 BCF: 1.11
